Where a SMILES comes first, the peptide text is derived from it.

The first assay addresses HLA-A*0201 (Homo sapiens, UniProt P04439, D140Y/D185E/D98H/E176V/E277Q/G131W/G231S/I119V/I121R/I166T/I218V/L300P/L318F/N151K/N90K/P208A/P217A/Q86G/Q94H/R138H/R169H/T345S). Kind of assay: In vitro class I HLA binding assay (fluorescence polarization competition). The note with it: allele A*0201; fluorescence polarization competition. In outline:
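Cell-free competition assay: HLA heat-treated 53°C for 15 min to strip endogenous peptides, then mixed with fluorescent high-affinity control peptide and test peptides for 72 h to equilibrium. Displacement read by fluorescence polarization as percent inhibition; IC50 derived from a concentration range.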
Background: In fluorescence polarisation assays a small probe gives low polarisation when free and higher when bound to something large.
As to KRASHTTPV [AMA1_607], the “IC50 (nM), in vitro HLA binding affinity” value was “Non-binder”.

The assay is the same for the next values; noted with them: allele A*0201; fluorescence polarization competition; read-out: IC50 (nM), in vitro HLA binding affinity.
As to `CC[C@H](C)[C@H](NC(=O)[C@H](Cc1c[nH]c2ccccc12)NC(=O)[C@H](CO)NC(=O)[C@H](CC(=O)O)NC(=O)[C@H](CCCCN)NC(=O)[C@@H](NC(=O)[C@@H](N)CCCCN)C(C)C)C(=O)N[C@H](C(=O)N[C@@H](CC(C)C)C(=O)O)[C@@H](C)O` [CYRPA_082] (H-KVKDSWITL-OH), the IC50 (commonly the concentration that inhibits the measured activity by half) was 4010 nM.
The same measure, in the same setting: as for `CC[C@H](C)[C@H](NC(=O)[C@H](CS)NC(=O)[C@@H](NC(=O)CNC(=O)[C@H](CC(N)=O)NC(=O)[C@H](CCC(=O)O)NC(=O)[C@H](CC(C)C)NC(=O)[C@@H](NC(=O)[C@@H](N)Cc1ccccc1)C(C)C)C(C)C)C(=O)O` [RIPR_0745] (H-FVLENGVCI-OH), the figure is 4170 nM.

A further assay addresses HLA-B*0702 (Homo sapiens, UniProt P01889). The description is as above. The note with it: allele B*0702; cell-free competition, fluorescence polarization at 72 hours; Non-binder = no dose-dependent inhibition. Here is the method: A cell-free class I HLA binding assay that allows for in vitro quantification of peptide-HLA binding affinity in a competition format was used. In this assay, a fluorescently labeled, high binding, control peptide is loaded onto 384-well ½-area plates along with unlabeled experimental peptides. To remove endogenous peptides and render the HLA A and B molecules receptive to binding, HLA is heated at 53°C for 15 minutes and immediately added to the assay. The mixture is then allowed to stand for three days. […] Binding of experimental peptides is expressed as the percent inhibition of the labeled control peptide (experimental fluorescence / control fluorescence, multiplied by 100). The percent inhibition values for each experimental peptide (across a range of molar concentrations) are used to calculate the concentration which inhibits 50% of the labeled control peptide’s specific binding. This value is referred to as the peptide’s IC50.
Take LQKHGFHTM [EBA175_1260]: the “IC50 (nM)” value is recorded as “Non-binder”.
On the same count and under the same terms, as for NPQQSVGENG [EBA175_0794], the entry is “Non-binder”; as for TPGPLDNTSE [EBA175_1073], “Non-binder”.

The assay is the same for the next values; noted with them: allele B*0702; cell-free competition, fluorescence polarization at 72 hours; Non-binder = no dose-dependent inhibition; read-out: IC50.
Consider `CC[C@H](C)[C@H](NC(=O)[C@@H](NC(=O)[C@H](C)NC(=O)[C@H](CCCCN)NC(=O)[C@@H]1CCCN1C(=O)[C@@H](N)CCSC)C(C)C)C(=O)NCC(=O)N[C@@H](CO)C(=O)N[C@@H](CO)C(=O)N1CCC[C@H]1C(=O)O` [EBA175_0971] (H-MPKAVIGSSP-OH), for which the IC50 turned out to be 293000 nM.
On the same count and under the same terms, as for `CC[C@H](C)[C@H](NC(=O)[C@H](CC(N)=O)NC(=O)[C@H](CC(=O)O)NC(=O)[C@H](CC(N)=O)NC(=O)[C@@H]1CCCN1C(=O)[C@@H](N)CO)C(=O)N[C@@H](CC(N)=O)C(=O)N[C@H](C(=O)N[C@H](C(=O)O)[C@@H](C)O)C(C)C` [EBA175_0979] (H-SPNDNINVT-OH), the figure is 36100 nM; as for `CC(C)C[C@H](NC(=O)[C@@H](NC(=O)[C@H](CC(N)=O)NC(=O)[C@H](CO)NC(=O)[C@H](CC(N)=O)NC(=O)[C@H](CCCNC(=N)N)NC(=O)[C@H](CC(=O)O)NC(=O)[C@H](CCC(=O)O)NC(=O)[C@@H]1CCCN1C(=O)[C@@H](N)CC(N)=O)[C@@H](C)O)C(=O)O` [EBA175_1224] (H-NPEDRNSNTL-OH), 2700 nM.

The same assay, now with this note: allele B*0702; fluorescence polarization competition.
Consider CPENSTCEQI [RIPR_0331], for which the “IC50 (nM), in vitro HLA binding affinity” value is recorded as “Non-binder”.
Still for that read-out and setting: as for FITSDHLRQM [RH5_469], the entry is “Non-binder”; as for FNRIEYHTKI [RH5_421], “Non-binder”; as for FPCSLYKDEI [AMA1_441], “Non-binder”.
Same read-out and setting: in the case of HPYDINNKND [RH5_240] it was “Non-binder”; in that of IPHYTFLDYY [RH5_176], “Non-binder”; in that of KPHECVCNKQ [RIPR_0878], “Non-binder”.
Still for that read-out and setting: in the case of KRASHTTPV [AMA1_607] it was “Non-binder”; in that of KSAFLPTGAF [AMA1_376], “Non-binder”.
With LPIKSTEEEK [RH5_042], the “IC50 (nM), in vitro HLA binding affinity” value is recorded as “Non-binder”.
Take LPSAKNNCEY [RIPR_0313]: the “IC50 (nM), in vitro HLA binding affinity” value is “Non-binder”.
Same read-out and setting: in the case of MDMKNYGTNL [RH5_330] it was “Non-binder”.
Consider MIRIKKKLIL [RH5_001], for which the “IC50 (nM), in vitro HLA binding affinity” value is on record as “Non-binder”.
Consider MNRTFKKMM [RH5_296], for which the “IC50 (nM), in vitro HLA binding affinity” value was “Non-binder”.

Still in this assay, the particulars now being: allele B*0702; fluorescence polarization competition; read-out: IC50 (nM), in vitro HLA binding affinity.
Regarding `CC[C@H](C)[C@H](NC(=O)[C@H](Cc1c[nH]c2ccccc12)NC(=O)[C@H](CO)NC(=O)[C@H](CC(=O)O)NC(=O)[C@H](CCCCN)NC(=O)[C@@H](NC(=O)[C@@H](N)CCCCN)C(C)C)C(=O)N[C@H](C(=O)N[C@@H](CC(C)C)C(=O)O)[C@@H](C)O` [CYRPA_082] (H-KVKDSWITL-OH), the IC50 was found to be 458 nM.
`C[C@H](NC(=O)[C@@H](NC(=O)[C@@H](NC(=O)[C@H](CC(N)=O)NC(=O)CNC(=O)[C@H](Cc1ccc(O)cc1)NC(=O)[C@H](CCCCN)NC(=O)[C@H](CCC(=O)O)NC(=O)[C@@H]1CCCN1C(=O)[C@@H](N)CCCCN)[C@@H](C)O)[C@@H](C)O)C(=O)O` [CYRPA_316] (H-KPEKYGNTTA-OH): the IC50 turned out to be 836000 nM.
As for `CC(C)C[C@H](NC(=O)[C@H](CC(=O)O)NC(=O)[C@H](CC(N)=O)NC(=O)[C@H](CCCCN)NC(=O)[C@H](CCCCN)NC(=O)[C@H](CCCCN)NC(=O)[C@H](CC(N)=O)NC(=O)[C@H](CO)NC(=O)[C@@H]1CCCN1C(=O)[C@@H](N)[C@@H](C)O)C(=O)O` [RH5_286] (H-TPSNKKKNDL-OH), the 50% inhibitory concentration (IC50) is 1880 nM.
The same measure, in the same setting: in the case of `CC[C@H](C)[C@H](N)C(=O)N[C@H](C(=O)N[C@@H](CO)C(=O)N[C@@H](CC(=O)O)C(=O)N[C@@H](Cc1c[nH]cn1)C(=O)N[C@@H](CC(C)C)C(=O)N[C@@H](CCCNC(=N)N)C(=O)N[C@@H](CCC(N)=O)C(=O)N[C@@H](CCSC)C(=O)O)[C@@H](C)O` [RH5_470] (H-ITSDHLRQM-OH) it was 183000 nM; in that of `CSCC[C@H](NC(=O)[C@H](CCC(=O)O)NC(=O)[C@H](CC(N)=O)NC(=O)[C@H](CCC(=O)O)NC(=O)[C@H](CCC(N)=O)NC(=O)[C@H](CC(C)C)NC(=O)[C@H](CC(N)=O)NC(=O)[C@H](CC(C)C)NC(=O)[C@@H]1CCCN1C(=O)[C@@H](N)CO)C(=O)O` [RIPR_0246] (H-SPLNLQENEM-OH), 22400 nM.
The same measure, in the same setting: in the case of `CC(C)C[C@H](NC(=O)[C@@H](NC(=O)[C@H](CO)NC(=O)[C@H](CCC(=O)O)NC(=O)[C@H](CS)NC(=O)[C@H](CC(=O)O)NC(=O)[C@H](CC(N)=O)NC(=O)[C@@H]1CCCN1C(=O)[C@@H](N)CCCNC(=N)N)C(C)C)C(=O)O` [RIPR_0676] (H-RPNDCESVL-OH) it was 377 nM; in that of `CC[C@H](C)[C@H](NC(=O)[C@H](CS)NC(=O)[C@@H](NC(=O)CNC(=O)[C@H](CC(N)=O)NC(=O)[C@H](CCC(=O)O)NC(=O)[C@H](CC(C)C)NC(=O)[C@@H](NC(=O)[C@@H](N)Cc1ccccc1)C(C)C)C(C)C)C(=O)O` [RIPR_0745] (H-FVLENGVCI-OH), 284000 nM.
For `CC(C)C[C@H](NC(=O)[C@H](CC(N)=O)NC(=O)[C@H](CCC(=O)O)NC(=O)[C@H](CCCCN)NC(=O)[C@H](CS)NC(=O)[C@@H](NC(=O)[C@H](CS)NC(=O)[C@H](CCC(=O)O)NC(=O)[C@@H]1CCCN1C(=O)[C@@H](N)CCCCN)C(C)C)C(=O)O` [RIPR_0836] (H-KPECVCKENL-OH), the half-maximal inhibitory concentration (IC50) was determined as 206000 nM.

The next assay addresses HLA-A*0301 (Homo sapiens, UniProt P04439). Briefly: biochemical.
Settings: not given
The assay is classed as binding. Here is the method:
A cell-free class I HLA binding assay that allows for in vitro quantification of peptide-HLA binding affinity in a competition format was used. In this assay, a fluorescently labeled, high binding, control peptide is loaded onto 384-well ½-area plates along with unlabeled experimental peptides. To remove endogenous peptides and render the HLA A and B molecules receptive to binding, HLA is heated at 53°C for 15 minutes and immediately added to the assay. The mixture is then allowed to stand for three days. Once the mixture has reached steady equilibrium (at 72 hours), displacement of the high binding control peptide is measured through fluorescence polarization. Binding of experimental peptides is expressed as the percent inhibition of the labeled control peptide (experimental fluorescence / control fluorescence, multiplied by 100). The percent inhibition values for each experimental peptide (across a range of molar concentrations) are used to calculate the concentration which inhibits 50% of the labeled control peptide’s specific binding. This value is referred to as the peptide’s IC50.
Take `CC[C@H](C)[C@H](NC(=O)[C@@H](N)Cc1ccccc1)C(=O)N[C@@H](CO)C(=O)N[C@@H](CC(=O)O)C(=O)N[C@@H](CC(=O)O)C(=O)N[C@@H](CCCCN)C(=O)N[C@@H](CC(=O)O)C(=O)N[C@@H](CO)C(=O)N[C@@H](CC(C)C)C(=O)N[C@@H](CCCCN)C(=O)O` [AMA1_480K] (H-FISDDKDSLK-OH): inhibition was half-maximal at 697000 nM (IC50).

Still in this assay, the particulars now being: allele A*0301; fluorescence polarization competition; read-out: IC50 (nM), in vitro HLA binding affinity.
Take `CC(C)C[C@H](NC(=O)[C@H](Cc1ccc(O)cc1)NC(=O)[C@H](CCC(N)=O)NC(=O)[C@H](CC(N)=O)NC(=O)CNC(=O)[C@@H](NC(=O)[C@H](C)NC(=O)[C@@H](NC(=O)[C@@H]1CCCN1)C(C)C)[C@@H](C)O)C(=O)N[C@@H](CCCCN)C(=O)O` [AMA1_168] (H-PVATGNQYLK-OH): the half-maximal inhibitory concentration (IC50) turned out to be 328000 nM.
Regarding `CC(C)C[C@H](NC(=O)[C@H](Cc1ccccc1)NC(=O)[C@H](C)NC(=O)[C@@H](N)CO)C(=O)N1CCC[C@H]1C(=O)N[C@H](C(=O)NCC(=O)N[C@@H](C)C(=O)N[C@@H](Cc1ccccc1)C(=O)N[C@@H](CCCCN)C(=O)O)[C@@H](C)O` [AMA1_377] (H-SAFLPTGAFK-OH), the half-inhibitory concentration (IC50) was determined as 345 nM.
Same read-out and setting: in the case of `CC[C@H](C)[C@H](NC(=O)[C@@H](N)Cc1c[nH]cn1)C(=O)N[C@@H](Cc1ccc(O)cc1)C(=O)N[C@H](C(=O)N[C@@H](CCC(N)=O)C(=O)N[C@@H](CCCCN)C(=O)N[C@@H](CCCCN)C(=O)N[C@H](C(=O)N[C@@H](CCCCN)C(=O)O)C(C)C)C(C)C` [CYRPA_076] (H-HIYVQKKVK-OH) it was 897 nM; in that of `CC(C)C[C@H](NC(=O)[C@@H]1CCCN1C(=O)[C@H](CC(C)C)NC(=O)[C@H](CO)NC(=O)[C@@H](NC(=O)[C@H](Cc1ccc(O)cc1)NC(=O)[C@H](CO)NC(=O)[C@H](CO)NC(=O)[C@@H](N)CC(C)C)C(C)C)C(=O)N[C@@H](CCCCN)C(=O)O` [CYRPA_161] (H-LSSYVSLPLK-OH), 654 nM; in that of `CC[C@H](C)[C@H](NC(=O)[C@@H](N)CC(C)C)C(=O)N[C@@H](CS)C(=O)NCC(=O)N[C@H](C(=O)N[C@@H](CO)C(=O)N1CCC[C@H]1C(=O)N[C@@H](Cc1ccc(O)cc1)C(=O)N[C@@H](CCCCN)C(=O)O)C(C)C` [CYRPA_178] (H-LICGVSPYK-OH), 419 nM.
